From ChEMBL document CHEMBL1667778, “Naphthalene/quinoline amides and sulfonylureas as potent and selective antagonists of the EP4 receptor” (Bioorg Med Chem Lett, 2011)

Key:
[1] = Clearance in Beagle dog at 1 mg/kg, iv and 4 mg/kg, po; assay type: ADME, organism-based, Canis lupus familiaris; conditions: in vivo
[2] = AUC (0 to 24 hrs) in Sprague-Dawley rat at 20 mg/kg, po; assay type: ADME, organism-based; parameters: time < 24 hr, dose 20 mg/kg, route oral; conditions: plasma
[3] = tested on: Hepatocyte; assay: Metabolic stability in human hepatocytes; assay type: ADME, cell-based
[4] = Bioavailability in Beagle dog at 1 mg/kg, iv and 4 mg/kg, po; assay type: ADME, organism-based, Canis lupus familiaris; conditions: in vivo
[5] = Elimination half life in Sprague-Dawley rat at 5 mg/kg, iv and 20 mg/kg, po; assay type: ADME, organism-based; conditions: in vivo
[6] = Bioavailability in Sprague-Dawley rat at 5 mg/kg, iv and 20 mg/kg, po; assay type: ADME, organism-based; conditions: in vivo
[7] = AUC (0 to 24 hrs) in Beagle dog at 4 mg/kg, po; assay type: ADME, organism-based, Canis lupus familiaris; parameters: time < 24 hr, dose 4 mg/kg, route oral; conditions: plasma
[8] = Clearance in Sprague-Dawley rat at 5 mg/kg, iv and 20 mg/kg, po; assay type: ADME, organism-based; conditions: in vivo
[9] = tested on: Hepatocyte; assay: Metabolic stability in rat hepatocytes; assay type: ADME, cell-based
[10] = Metabolic stability in human liver microsome; assay type: ADME; conditions: microsomes
[11] = tested on: Plasma; assay: Drug level in Sprague-Dawley rat plasma at 150 uCi/kg, po after 24 hrs; assay type: ADME, organism-based; conditions: in vivo
[12] = tested on: Liver; assay: Drug level in Sprague-Dawley rat liver at 150 uCi/kg, po after 24 hrs; assay type: ADME, organism-based; conditions: in vivo
[13] = Elimination half life in Beagle dog at 1 mg/kg, iv and 4 mg/kg, po; assay type: ADME, organism-based, Canis lupus familiaris; conditions: in vivo
[14] = Metabolic stability in rat liver microsome; assay type: ADME; conditions: microsomes

For `CCOc1c2c(c(OCC)c3ccccc13)C(=O)N(c1ccc(CC3(NC(=O)NS(=O)(=O)c4c(Cl)cccc4Cl)CC3)cc1C)C2`, which clearance [1] is on record?
Its clearance is 1.2 mL/min/kg.

And the AUC(0-t) at 24 h [2]?
Its AUC(0-t) at 24 h is 37.4 µM·h.

What about the Stability [3] of the same compound?
The Stability was 96%.

What about the bioavailability [4] of the same compound?
Its bioavailability is 100%.

And the half-life [5]?
The half-life was 6.6 h.

And the bioavailability [6]?
The bioavailability was 84%.

What about the AUC(0-t) at 24 h [7] of the same compound?
Its AUC(0-t) at 24 h is 101 µM·h.

And the clearance [8]?
Its clearance is 11 mL/min/kg.

And the Stability [9]?
The Stability was 91%.

What about the Stability [10] of the same compound?
Its Stability is 90%.

What about the Drug uptake [11] of the same compound?
Its Drug uptake is < 10 pmol/mg.

And the Drug uptake [12]?
Its Drug uptake is < 10 pmol/mg.

What about the half-life [13] of the same compound?
The half-life was 4.3 h.

What about the Stability [14] of the same compound?
The Stability was 97%.
